In the kinase profiling compilation of Christmann-Franck et al. (2016):
Several values for one entry are separate records, joined by “and”; a condition that tells them apart may be missing. Equal values may be shown once.

Tests used:
Test in all cases: radiometric filter-binding kinase assay, Kinase HotSpot
Conditions in all cases: compound 0.5 µM; ATP 10 µM
MARK3 (human) = MARK3 (human) (UniProt P27448)
MAPK12 (human) = MAPK12 (human) (UniProt P53778)
CAMK2G (human) = CAMK2G (human) (UniProt Q13555)
SRPK3 (human) = SRPK3 (human) (UniProt Q9UPE1)
MET (human) = MET (human) (UniProt P08581)
SLK (human) = SLK (human) (UniProt Q9H2G2)
MAPK8 (human) = MAPK8 (human) (UniProt P45983)
MST4 (human) = MST4 (human) (UniProt Q9P289)
EPHA2 (human) = EPHA2 (human) (UniProt P29317)
MINK1 (human) = MINK1 (human) (UniProt Q8N4C8)
CAMK1D (human) = CAMK1D (human) (UniProt Q8IU85)
GRK4 (human) = GRK4 (human) (UniProt P32298)
HIPK1 (human) = HIPK1 (human) (UniProt Q86Z02)
PNCK (human) = PNCK (human) (UniProt Q6P2M8)
TBK1 (human) = TBK1 (human) (UniProt Q9UHD2)
PRKCZ (human) = PRKCZ (human) (UniProt Q05513)
FGFR3 (human) = FGFR3 (human) (UniProt P22607)
ACVR1 (human) = ACVR1 (human) (UniProt Q04771)
PRKD2 (human) = PRKD2 (human) (UniProt Q9BZL6)
HCK (human) = HCK (human) (UniProt P08631)
PRKG1 (human) = PRKG1 (human) (UniProt Q13976)
DYRK2 (human) = DYRK2 (human) (UniProt Q92630)
NLK (human) = NLK (human) (UniProt Q9UBE8)
NEK7 (human) = NEK7 (human) (UniProt Q8TDX7)
JAK3 JH1 JH2 (human) = JAK3 JH1 JH2 (human) (UniProt P52333)
RPS6KB1 (human) = RPS6KB1 (human) (UniProt P23443)
DDR2 (human) = DDR2 (human) (UniProt Q16832)
NEK11 (human) = NEK11 (human) (UniProt Q8NG66)
RPS6KA1 KD1 KD2 (human) = RPS6KA1 KD1 KD2 (human) (UniProt Q15418)
DYRK1B (human) = DYRK1B (human) (UniProt Q9Y463)
MAPKAPK5 (human) = MAPKAPK5 (human) (UniProt Q8IW41)
EPHB3 (human) = EPHB3 (human) (UniProt P54753)
CAMK1G (human) = CAMK1G (human) (UniProt Q96NX5)
NEK1 (human) = NEK1 (human) (UniProt Q96PY6)
MAP3K3 (human) = MAP3K3 (human) (UniProt Q99759)
NTRK3 (human) = NTRK3 (human) (UniProt Q16288)
PTK2 (human) = PTK2 (human) (UniProt Q05397)
PRKD1 (human) = PRKD1 (human) (UniProt Q15139)
PDGFRA (human) = PDGFRA (human) (UniProt P16234)
NTRK1 (human) = NTRK1 (human) (UniProt P04629)
CSNK1A1 (human) = CSNK1A1 (human) (UniProt P48729)
BRSK2 (human) = BRSK2 (human) (UniProt Q8IWQ3)

Sequence of NTRK1 (human) (P04629 whole entry, looked up): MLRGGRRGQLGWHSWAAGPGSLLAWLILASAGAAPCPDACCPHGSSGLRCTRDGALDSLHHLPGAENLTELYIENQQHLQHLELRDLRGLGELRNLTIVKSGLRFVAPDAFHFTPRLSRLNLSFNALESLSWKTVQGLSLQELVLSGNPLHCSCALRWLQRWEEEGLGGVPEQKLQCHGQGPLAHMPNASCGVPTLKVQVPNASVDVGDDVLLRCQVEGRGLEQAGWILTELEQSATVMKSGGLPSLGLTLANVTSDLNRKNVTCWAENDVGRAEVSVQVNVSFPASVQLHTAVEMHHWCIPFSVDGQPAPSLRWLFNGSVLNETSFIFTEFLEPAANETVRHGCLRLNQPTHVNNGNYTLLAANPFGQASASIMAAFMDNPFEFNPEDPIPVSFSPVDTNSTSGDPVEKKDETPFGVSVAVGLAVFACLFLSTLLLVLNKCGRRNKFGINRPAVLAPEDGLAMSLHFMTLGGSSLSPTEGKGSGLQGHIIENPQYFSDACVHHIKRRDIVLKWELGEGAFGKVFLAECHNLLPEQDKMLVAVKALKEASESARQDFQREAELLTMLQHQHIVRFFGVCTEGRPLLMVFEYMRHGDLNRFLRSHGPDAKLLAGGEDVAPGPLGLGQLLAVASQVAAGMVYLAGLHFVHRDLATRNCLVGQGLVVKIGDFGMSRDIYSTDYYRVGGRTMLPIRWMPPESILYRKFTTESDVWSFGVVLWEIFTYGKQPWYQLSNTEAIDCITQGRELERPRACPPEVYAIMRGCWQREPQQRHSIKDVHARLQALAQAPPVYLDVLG
Sequence of MAPK12 (human) (P53778 whole entry, looked up): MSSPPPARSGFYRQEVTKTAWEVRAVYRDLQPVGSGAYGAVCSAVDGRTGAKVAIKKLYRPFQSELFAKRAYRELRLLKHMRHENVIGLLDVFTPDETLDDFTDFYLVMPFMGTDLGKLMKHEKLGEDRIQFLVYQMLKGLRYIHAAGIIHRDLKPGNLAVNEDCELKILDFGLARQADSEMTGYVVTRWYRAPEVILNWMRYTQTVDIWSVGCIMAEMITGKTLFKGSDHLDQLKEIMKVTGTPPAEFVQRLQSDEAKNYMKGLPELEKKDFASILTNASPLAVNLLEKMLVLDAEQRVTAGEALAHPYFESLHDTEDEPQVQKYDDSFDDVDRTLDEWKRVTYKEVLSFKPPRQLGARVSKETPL
Sequence of PNCK (human) (Q6P2M8 whole entry, looked up): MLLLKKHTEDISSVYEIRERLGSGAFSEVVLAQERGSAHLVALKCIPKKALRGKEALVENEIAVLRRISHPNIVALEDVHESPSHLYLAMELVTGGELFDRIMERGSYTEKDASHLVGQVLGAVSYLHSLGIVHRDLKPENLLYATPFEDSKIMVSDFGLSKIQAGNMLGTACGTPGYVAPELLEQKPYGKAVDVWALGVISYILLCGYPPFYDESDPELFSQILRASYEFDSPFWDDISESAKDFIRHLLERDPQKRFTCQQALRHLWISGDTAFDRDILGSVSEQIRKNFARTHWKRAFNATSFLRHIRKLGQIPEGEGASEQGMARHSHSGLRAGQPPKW
Sequence of CSNK1A1 (human) (P48729 whole entry, looked up): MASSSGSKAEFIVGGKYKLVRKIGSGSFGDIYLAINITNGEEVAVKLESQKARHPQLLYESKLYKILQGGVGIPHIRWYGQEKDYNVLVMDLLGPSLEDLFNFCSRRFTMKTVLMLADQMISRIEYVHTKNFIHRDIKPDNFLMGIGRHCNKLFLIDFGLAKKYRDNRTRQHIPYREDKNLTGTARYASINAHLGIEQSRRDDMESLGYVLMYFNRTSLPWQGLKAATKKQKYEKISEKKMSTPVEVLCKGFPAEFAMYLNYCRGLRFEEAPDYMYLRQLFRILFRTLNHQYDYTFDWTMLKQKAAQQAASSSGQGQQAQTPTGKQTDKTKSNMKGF
Sequence of CAMK2G (human) (Q13555 whole entry, looked up): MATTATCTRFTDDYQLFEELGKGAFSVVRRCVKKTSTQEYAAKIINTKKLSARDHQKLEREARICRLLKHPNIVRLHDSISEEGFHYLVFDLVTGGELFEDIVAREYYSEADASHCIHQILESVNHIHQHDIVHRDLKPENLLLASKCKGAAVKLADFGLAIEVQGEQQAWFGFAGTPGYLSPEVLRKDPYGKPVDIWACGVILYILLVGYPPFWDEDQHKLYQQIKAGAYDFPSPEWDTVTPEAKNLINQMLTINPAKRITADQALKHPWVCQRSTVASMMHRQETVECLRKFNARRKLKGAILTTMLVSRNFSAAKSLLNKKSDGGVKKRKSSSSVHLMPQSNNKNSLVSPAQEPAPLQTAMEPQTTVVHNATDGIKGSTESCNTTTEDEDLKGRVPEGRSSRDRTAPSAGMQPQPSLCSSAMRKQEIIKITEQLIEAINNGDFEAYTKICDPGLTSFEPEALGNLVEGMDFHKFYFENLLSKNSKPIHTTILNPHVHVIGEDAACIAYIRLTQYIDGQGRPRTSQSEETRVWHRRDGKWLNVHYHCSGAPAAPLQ
Sequence of MAPK8 (human) (P45983 whole entry, looked up): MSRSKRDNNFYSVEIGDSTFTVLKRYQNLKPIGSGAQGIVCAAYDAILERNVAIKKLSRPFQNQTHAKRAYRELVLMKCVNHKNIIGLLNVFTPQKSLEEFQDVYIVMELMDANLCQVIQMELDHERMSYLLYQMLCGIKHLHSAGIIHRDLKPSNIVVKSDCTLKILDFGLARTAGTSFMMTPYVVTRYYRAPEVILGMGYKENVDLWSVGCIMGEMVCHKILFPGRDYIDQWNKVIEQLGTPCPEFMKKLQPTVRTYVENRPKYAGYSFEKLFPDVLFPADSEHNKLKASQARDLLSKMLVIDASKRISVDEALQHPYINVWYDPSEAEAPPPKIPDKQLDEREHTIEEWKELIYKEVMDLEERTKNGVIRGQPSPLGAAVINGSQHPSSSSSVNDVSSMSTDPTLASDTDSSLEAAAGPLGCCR
Sequence of PTK2 (human) (Q05397 whole entry, looked up): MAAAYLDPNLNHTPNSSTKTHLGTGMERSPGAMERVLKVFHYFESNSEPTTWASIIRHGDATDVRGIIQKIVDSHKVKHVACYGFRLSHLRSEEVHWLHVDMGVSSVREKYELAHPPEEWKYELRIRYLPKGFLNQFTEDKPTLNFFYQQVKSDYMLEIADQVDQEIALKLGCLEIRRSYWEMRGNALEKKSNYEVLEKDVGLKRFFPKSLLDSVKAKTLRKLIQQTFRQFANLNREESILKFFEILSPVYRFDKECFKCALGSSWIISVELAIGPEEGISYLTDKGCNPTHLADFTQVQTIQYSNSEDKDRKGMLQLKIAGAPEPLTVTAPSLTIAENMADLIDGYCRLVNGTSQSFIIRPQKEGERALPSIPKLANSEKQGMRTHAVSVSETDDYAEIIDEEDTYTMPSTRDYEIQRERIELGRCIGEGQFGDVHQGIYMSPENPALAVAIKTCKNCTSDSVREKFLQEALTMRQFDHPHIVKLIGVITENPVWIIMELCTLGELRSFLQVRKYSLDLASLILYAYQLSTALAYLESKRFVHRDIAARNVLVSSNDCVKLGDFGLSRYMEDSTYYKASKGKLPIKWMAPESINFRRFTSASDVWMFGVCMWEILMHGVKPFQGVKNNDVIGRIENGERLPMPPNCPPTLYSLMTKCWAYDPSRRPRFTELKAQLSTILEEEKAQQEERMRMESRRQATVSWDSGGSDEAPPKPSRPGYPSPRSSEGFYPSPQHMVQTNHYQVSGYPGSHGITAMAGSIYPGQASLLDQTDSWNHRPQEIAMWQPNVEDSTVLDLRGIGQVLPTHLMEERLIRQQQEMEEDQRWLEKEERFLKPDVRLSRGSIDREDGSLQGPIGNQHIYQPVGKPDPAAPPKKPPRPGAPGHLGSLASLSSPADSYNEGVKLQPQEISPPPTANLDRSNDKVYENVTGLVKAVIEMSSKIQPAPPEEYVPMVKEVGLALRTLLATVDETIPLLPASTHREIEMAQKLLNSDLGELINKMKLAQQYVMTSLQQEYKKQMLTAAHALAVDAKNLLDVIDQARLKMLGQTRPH
Sequence of DYRK1B (human) (Q9Y463 whole entry, looked up): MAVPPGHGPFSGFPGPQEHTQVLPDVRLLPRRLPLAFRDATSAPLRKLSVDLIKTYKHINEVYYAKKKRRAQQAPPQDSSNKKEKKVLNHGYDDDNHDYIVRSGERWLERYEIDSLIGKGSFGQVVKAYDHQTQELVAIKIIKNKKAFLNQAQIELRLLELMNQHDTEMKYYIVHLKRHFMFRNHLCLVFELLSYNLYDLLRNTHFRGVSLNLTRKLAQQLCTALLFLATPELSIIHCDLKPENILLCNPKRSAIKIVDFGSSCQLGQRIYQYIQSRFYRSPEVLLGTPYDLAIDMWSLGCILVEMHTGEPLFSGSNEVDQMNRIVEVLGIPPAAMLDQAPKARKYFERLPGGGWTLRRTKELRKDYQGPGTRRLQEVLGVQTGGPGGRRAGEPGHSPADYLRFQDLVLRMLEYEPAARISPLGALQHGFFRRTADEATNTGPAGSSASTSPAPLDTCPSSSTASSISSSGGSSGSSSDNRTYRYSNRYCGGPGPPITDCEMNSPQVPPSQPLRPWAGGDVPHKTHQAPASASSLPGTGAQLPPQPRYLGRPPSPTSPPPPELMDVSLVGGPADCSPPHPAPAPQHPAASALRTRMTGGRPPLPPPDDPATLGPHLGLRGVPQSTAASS
Sequence of MST4 (human) (Q9P289 whole entry, looked up): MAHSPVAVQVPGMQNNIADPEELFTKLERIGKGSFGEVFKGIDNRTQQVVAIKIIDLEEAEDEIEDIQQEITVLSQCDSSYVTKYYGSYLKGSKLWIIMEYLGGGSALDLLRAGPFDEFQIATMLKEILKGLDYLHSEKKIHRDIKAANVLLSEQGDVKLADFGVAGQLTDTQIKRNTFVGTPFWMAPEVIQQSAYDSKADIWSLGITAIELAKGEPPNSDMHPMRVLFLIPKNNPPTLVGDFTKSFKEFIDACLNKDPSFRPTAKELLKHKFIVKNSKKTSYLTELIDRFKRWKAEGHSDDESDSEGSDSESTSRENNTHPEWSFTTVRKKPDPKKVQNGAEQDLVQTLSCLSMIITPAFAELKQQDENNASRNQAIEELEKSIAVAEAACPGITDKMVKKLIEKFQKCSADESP

Q: For `CN(C)CCCn1cc(C2=C(c3c[nH]c4ccccc34)C(=O)NC2=O)c2ccccc21`, which residual activity (MARK3 (human)) is on record?
A: 72%

Q: And the residual activity (MAPK12 (human))?
A: 95.9%

Q: And the residual activity (CAMK2G (human))?
A: 73.3%

Q: What about the residual activity (SRPK3 (human)) of the same molecule?
A: 86.9%

Q: What about the residual activity (MET (human)) of the same molecule?
A: 102%

Q: And the residual activity (SLK (human))?
A: 45.8%

Q: And the residual activity (MAPK8 (human))?
A: 90.2%

Q: And the residual activity (MST4 (human))?
A: 37.2%

Q: And the residual activity (EPHA2 (human))?
A: 81.8%

Q: And the residual activity (MINK1 (human))?
A: 92.1%

Q: And the residual activity (CAMK1D (human))?
A: 68%

Q: And the residual activity (GRK4 (human))?
A: 84.5%

Q: And the residual activity (HIPK1 (human))?
A: 96.6%

Q: What about the residual activity (PNCK (human)) of the same molecule?
A: 106%

Q: What about the residual activity (TBK1 (human)) of the same molecule?
A: 83.8%

Q: What about the residual activity (PRKCZ (human)) of the same molecule?
A: 57.2%

Q: And the residual activity (FGFR3 (human))?
A: 87.9%

Q: What about the residual activity (ACVR1 (human)) of the same molecule?
A: 96.3%

Q: And the residual activity (PRKD2 (human))?
A: 78.8%

Q: What about the residual activity (HCK (human)) of the same molecule?
A: 92.3%

Q: What about the residual activity (PRKG1 (human)) of the same molecule?
A: 38.3% and 59.3%

Q: What about the residual activity (DYRK2 (human)) of the same molecule?
A: 111%

Q: What about the residual activity (NLK (human)) of the same molecule?
A: 94%

Q: And the residual activity (NEK7 (human))?
A: 87.1%

Q: And the residual activity (JAK3 JH1 JH2 (human))?
A: 81.5%

Q: And the residual activity (RPS6KB1 (human))?
A: 11.6%

Q: What about the residual activity (DDR2 (human)) of the same molecule?
A: 111%

Q: And the residual activity (NEK11 (human))?
A: 104%

Q: What about the residual activity (RPS6KA1 KD1 KD2 (human)) of the same molecule?
A: 4.67%

Q: What about the residual activity (DYRK1B (human)) of the same molecule?
A: 76%

Q: And the residual activity (MAPKAPK5 (human))?
A: 93.7%

Q: And the residual activity (EPHB3 (human))?
A: 95.2%

Q: What about the residual activity (CAMK1G (human)) of the same molecule?
A: 97.4%

Q: What about the residual activity (NEK1 (human)) of the same molecule?
A: 92.5%

Q: And the residual activity (MAP3K3 (human))?
A: 97%

Q: What about the residual activity (NTRK3 (human)) of the same molecule?
A: 20.2%

Q: And the residual activity (PTK2 (human))?
A: 86.1%

Q: What about the residual activity (PRKD1 (human)) of the same molecule?
A: 71.6%

Q: What about the residual activity (PDGFRA (human)) of the same molecule?
A: 69.2%

Q: What about the residual activity (NTRK1 (human)) of the same molecule?
A: 108%

Q: What about the residual activity (CSNK1A1 (human)) of the same molecule?
A: 96.5%

Q: What about the residual activity (BRSK2 (human)) of the same molecule?
A: 55.6%

Q: Which residual activity (MARK3 (human)) does the source give for `CN(C)c1ccc(/C=C2\C(=O)Nc3ccccc32)cc1` here?
A: 101%

Q: What about the residual activity (MAPK12 (human)) of the same molecule?
A: 102%

Q: And the residual activity (CAMK2G (human))?
A: 99.6%

Q: What about the residual activity (SRPK3 (human)) of the same molecule?
A: 98.7%

Q: What about the residual activity (MET (human)) of the same molecule?
A: 101%

Q: What about the residual activity (SLK (human)) of the same molecule?
A: 103%

Q: What about the residual activity (MAPK8 (human)) of the same molecule?
A: 103%

Q: And the residual activity (MST4 (human))?
A: 90.9%

Q: And the residual activity (EPHA2 (human))?
A: 107%

Q: What about the residual activity (MINK1 (human)) of the same molecule?
A: 79%

Q: What about the residual activity (CAMK1D (human)) of the same molecule?
A: 98.8%

Q: And the residual activity (GRK4 (human))?
A: 103%

Q: What about the residual activity (HIPK1 (human)) of the same molecule?
A: 103%

Q: And the residual activity (PNCK (human))?
A: 102%

Q: What about the residual activity (TBK1 (human)) of the same molecule?
A: 98.4%

Q: What about the residual activity (PRKCZ (human)) of the same molecule?
A: 112%

Q: What about the residual activity (FGFR3 (human)) of the same molecule?
A: 96.3%

Q: What about the residual activity (ACVR1 (human)) of the same molecule?
A: 104%

Q: And the residual activity (PRKD2 (human))?
A: 95.2%

Q: What about the residual activity (HCK (human)) of the same molecule?
A: 110%

Q: And the residual activity (PRKG1 (human))?
A: 86.9% and 99.7%

Q: What about the residual activity (DYRK2 (human)) of the same molecule?
A: 100%

Q: And the residual activity (NLK (human))?
A: 102%

Q: And the residual activity (NEK7 (human))?
A: 102%

Q: And the residual activity (JAK3 JH1 JH2 (human))?
A: 113%

Q: And the residual activity (RPS6KB1 (human))?
A: 97.1%

Q: And the residual activity (DDR2 (human))?
A: 103%

Q: And the residual activity (NEK11 (human))?
A: 96.4%

Q: What about the residual activity (RPS6KA1 KD1 KD2 (human)) of the same molecule?
A: 78.4%

Q: What about the residual activity (DYRK1B (human)) of the same molecule?
A: 106%

Q: What about the residual activity (MAPKAPK5 (human)) of the same molecule?
A: 98.6%

Q: What about the residual activity (EPHB3 (human)) of the same molecule?
A: 94.9%

Q: And the residual activity (CAMK1G (human))?
A: 99.9%

Q: And the residual activity (NEK1 (human))?
A: 112%

Q: What about the residual activity (MAP3K3 (human)) of the same molecule?
A: 104%

Q: What about the residual activity (NTRK3 (human)) of the same molecule?
A: 36.3%

Q: What about the residual activity (PTK2 (human)) of the same molecule?
A: 104%

Q: What about the residual activity (PRKD1 (human)) of the same molecule?
A: 100%

Q: What about the residual activity (PDGFRA (human)) of the same molecule?
A: 79.9%

Q: What about the residual activity (NTRK1 (human)) of the same molecule?
A: 96.6%

Q: And the residual activity (CSNK1A1 (human))?
A: 105%

Q: What about the residual activity (BRSK2 (human)) of the same molecule?
A: 93%

Q: `CCCCc1c(-c2ccc(OC)cc2)[nH]c2nccnc12` was tested. Which residual activity (MARK3 (human)) did it give?
A: 91.2%

Q: What about the residual activity (MAPK12 (human)) of the same molecule?
A: 102%

Q: What about the residual activity (CAMK2G (human)) of the same molecule?
A: 107%

Q: And the residual activity (SRPK3 (human))?
A: 97.9%

Q: What about the residual activity (MET (human)) of the same molecule?
A: 86.8%

Q: What about the residual activity (SLK (human)) of the same molecule?
A: 76.2%

Q: And the residual activity (MAPK8 (human))?
A: 74.5%

Q: What about the residual activity (MST4 (human)) of the same molecule?
A: 75.8%

Q: And the residual activity (EPHA2 (human))?
A: 87.9%

Q: And the residual activity (MINK1 (human))?
A: 84.4%

Q: What about the residual activity (CAMK1D (human)) of the same molecule?
A: 97.9%

Q: What about the residual activity (GRK4 (human)) of the same molecule?
A: 96.7%

Q: What about the residual activity (HIPK1 (human)) of the same molecule?
A: 109%

Q: What about the residual activity (PNCK (human)) of the same molecule?
A: 120%

Q: And the residual activity (TBK1 (human))?
A: 81.4%

Q: And the residual activity (PRKCZ (human))?
A: 93.9%

Q: And the residual activity (FGFR3 (human))?
A: 86.8%

Q: And the residual activity (ACVR1 (human))?
A: 86.9%

Q: And the residual activity (PRKD2 (human))?
A: 101%

Q: What about the residual activity (HCK (human)) of the same molecule?
A: 94.4%

Q: What about the residual activity (PRKG1 (human)) of the same molecule?
A: 102% and 92.7%

Q: And the residual activity (DYRK2 (human))?
A: 92.9%

Q: What about the residual activity (NLK (human)) of the same molecule?
A: 88.4%

Q: And the residual activity (NEK7 (human))?
A: 107%

Q: And the residual activity (JAK3 JH1 JH2 (human))?
A: 92.8%

Q: And the residual activity (RPS6KB1 (human))?
A: 108%

Q: What about the residual activity (DDR2 (human)) of the same molecule?
A: 94.3%

Q: And the residual activity (NEK11 (human))?
A: 93.6%

Q: What about the residual activity (RPS6KA1 KD1 KD2 (human)) of the same molecule?
A: 89.8%

Q: And the residual activity (DYRK1B (human))?
A: 94.5%

Q: What about the residual activity (MAPKAPK5 (human)) of the same molecule?
A: 95.3%

Q: And the residual activity (EPHB3 (human))?
A: 99.8%

Q: What about the residual activity (CAMK1G (human)) of the same molecule?
A: 102%

Q: And the residual activity (NEK1 (human))?
A: 86.9%

Q: And the residual activity (MAP3K3 (human))?
A: 99.8%

Q: What about the residual activity (NTRK3 (human)) of the same molecule?
A: 84.4%

Q: And the residual activity (PTK2 (human))?
A: 81.7%

Q: And the residual activity (PRKD1 (human))?
A: 92.9%

Q: And the residual activity (PDGFRA (human))?
A: 90.3%

Q: And the residual activity (NTRK1 (human))?
A: 109%

Q: And the residual activity (CSNK1A1 (human))?
A: 92.9%

Q: And the residual activity (BRSK2 (human))?
A: 90.8%
